From patent publication US9119823B2 (priority 2008, dated 2015)
Read-outs that look alike come from different tables or passages of the source.

Tests used:
[1] = tested on: nitric oxide synthase (NOS); settings: read-out: Michaelis constant (KM) for substrate; cited from earlier work
[2] = man, cited from earlier work
[3] = cited from earlier work
[4] = in vivo; cited from earlier work
[5] = adults; cited from earlier work
[6] = cited from earlier work; for half life of nitrite in whole blood: human whole blood
[7] = tested on: lesion formation on the abdominal aorta; settings: 50 mg/L nitrite for 12 weeks, high fat diet
From the text: Although the LDb mice spontaneously develop atherosclerosis on normal rodent chow, the addition of a high fat diet will accelerate the process from 8 months to 12 weeks.

[8] = cited from earlier work; remark: listed apart in the source
[9] = tested on: myocardial ischemia/reperfusion injury; settings: eNOS-/- mice, low NOx diet, 50 mg/L nitrite, 30 minutes ischemia and 24 hour reperfusion
[10] = tested on: myocardial ischemia/reperfusion (I/R) injury
[11] = 50 mg/L nitrite in the drinking water for 7 days
From the text: Enzymatic NO insufficiency is a hallmark of a number of diseases including cardiovascular disease. […] The mice were fed standard rodent chow or low NOx diet.

[12] = two year study, male or female rats; cited from earlier work
[13] = two year study, male or female mice; cited from earlier work
[14] = low NOx diet
tissue homogenates = settings: at 0.5% oxygen; cited from earlier work
[15] = 50 mg/L nitrite in the drinking water for 1 week

N=C(N)NCCC[C@H](N)C(=O)O [L-arginine]
Km [1]: 2.9 µM

O=[N+]([O-])[O-].[Na+] [nitrate, sodium nitrate]
poisoning, total oral daily dose ([2]; oral): > 4 g
dose generally fatal [2]: 13 to 15 g
dose that may be fatal [2]: 8 g
poisoning, single dose [2]: more than 1 g
ingested nitrate actively taken up by the salivary glands ([3]; excreted in the saliva): ≤ 25%
salivary nitrate reduced to nitrite by bacteria in the mouth ([3]; in vivo): Approximately 20%
circulating half life of nitrate [4]: 300 to 480 min
clearance of nitrate from blood to urine [5]: Approximately 20 ml/min

O=NO [nitrite, sodium nitrite]
half-life of nitrite in the circulation ([6]; circulation): 1.83 min
half life of nitrite in whole blood [6]: 1.83 min
half life of nitrite in whole blood ([6]; listed as NO2^−): about 110 seconds
less lesion formation on the abdominal aorta than control group [7]: 20%
fatal dose ([8]; in humans): 22 to 23 mg/kg
fatal dose of nitrite ([8]; in vivo): 22-23 mg/kg body weight
protection from myocardial ischemia/reperfusion injury [9]: protected
survival 24 hours post-myocardial infarction ([10]; low NOx diet with nitrite-supplemented drinking water): 76.9%
reversal of the increased myocardial infarct size ([10]; low NOx diet, 50 mg/L sodium nitrite ad libitum in the drinking water): 57%
plasma and cardiac nitroso in eNOS-/- mice [11]: above C57 control levels
plasma nitrite in eNOS-/- mice [11]: restores
carcinogenic activity [12]: no evidence of carcinogenic activity
carcinogenic activity [13]: no evidence of carcinogenic activity
plasma and heart nitroso levels [14, 15]: replenished and increased
plasma and heart steady-state nitrite and nitrate concentrations [14, 15]: restored
nitrosyl-heme products ([14]; nitrite supplementation in the drinking water): replenished

O=O [oxygen]
inhibition of nitrite reduction (tissue homogenates): 80%
